Laboratory results published in patent US11156599B2, “Assay for telomere length regulators” (The Johns Hopkins University, priority 2015, dated 2021).

Columns and labels:
[1] = system: ATM kinase-dependent signaling pathway (Kap1-S824 phosphorylation); experiment: Western blot of phosphorylated Kap1 (ATM substrate); type: cell-based, mouse
Description: Having established the robust ADDIT assay that can measure telomere elongation over one cell cycle, it was desired to examine whether the ATM kinase activity is required for telomere elongation. Two different methods were used to inhibit ATM: the ATM specific inhibitor KU55933 and siRNA knockdown. To confirm the inhibition of ATM kinase activity, the phosphorylation level of ATM substrate Kap1 as well as ATR kinase substrate Chk1 was examined by western blot. Cultured cells were pretreated with KU55933, siATM or DMSO control and later exposed to a DNA damaging reagent Camptothecin (CPT).
To detect phospho-proteins, 1× lysis buffer made of final concentration of 1× RIPA (Cell Signaling, #98016S), 1× protease inhibitor cocktail, 1× PhosSTOP™ (Roche, #4906845001) was added directly to cells on the dish after washing with cold 1× PBS. Protein concentration was measured with a BCA protein assay kit (Thermo, #23227). Typically 10 μg of protein from each sample was applied to SDS-PAGE gels, 4-15% Mini-PROTEAN TGX™ gels (Biorad, #456-1084), and transferred to nitrocellulose membranes in transfer buffer. […] Band intensities were quantified using the Odyssey™ software (LI-COR) and normalized to Actin levels. […]

SL13 cells = experiment: Telomere Southern blot after telomerase (mTR and mTERT) overexpression; type: cell-based, mouse; details: lentivirus expressing mTR and mTERT, 2 or 5 days in culture
Experimental: To examine the role of ATM in telomere elongation by an independent method, telomerase was overexpressed in the cell line, in the presence of ATM inhibition. It has been shown that overexpressing telomerase elongates telomere lengths in human cells. Cells were treated with KU55933 and then transduced with a lentivirus expressing both mTR and mTERT and grown for 2 or 5 days in culture and telomere lengths were assayed by Southern blot. Telomere lengths in cells overexpressing telomerase were rapidly elongated in just 5 days (data not shown). […] In addition, as discussed below, when cells are grown for several days, ATR may also compensate for the loss of ATM. […]
To measure telomere lengths by Southern blot, genomic DNA was extracted from cell pellets collected at different population doublings using the Puregene Core Kit A™ (Qiagen). […] Labeled probe was counted and 10^6 counts/ml (telomere probe) or 10^4 counts/ml (ladder) was denatured at 100° C. for 5 minutes and added to the pre-hybridization solution and hybridized overnight at 65° C. Membranes were washed 3× 15 minutes each in 6× SSC and 1% SDS at 65° C., and 3× 15 minutes each in 1× SSC and 1% SDS at 65° C. and exposed to a phosphorimager screen and detected on a Fuji phosphorimager. […]

human HCT116 cells = experiment: Telomere length in continuously growing HCT116 cells; type: cell-based; details: KU55933

| SMILES | Kap1-S824 phosphorylation ([1]; pretreated, later exposed to Camptothecin (CPT), western blot) | telomere elongation by telomerase overexpression (SL13 cells) | telomere lengths with increasing cell PDs (human HCT116 cells) | increased level of Kap1 phosphorylation compared to DMSO-treated control cells ([1]; Olaparib treated cells) [fold] |
| --- | --- | --- | --- | --- |
| O=c1cc(-c2cccc3c2Sc2ccccc2S3)oc(N2CCOCC2)c1 [KU55933] | blocked Kap1 phosphorylation | significantly blocked the telomere elongation | shortened significantly |  |
| O=C(c1cc(Cc2n[nH]c(=O)c3ccccc23)ccc1F)N1CCN(C(=O)C2CC2)CC1 [Olaparib] |  |  |  | 5 |
